The target of this test is human LPAR1 (Homo sapiens (Human), UniProt Q92633). The experiment in a line: LPAR1 intracellular calcium mobilization assay (antagonist mode, FLIPR). Format: cell-based. Particulars: CHO-K1 EDG2 cells expressing human LPAR1, LPA 18:2 at EC80 (100 nM), test compound 0.5 nM to 10 μM.
human LPAR1, sequence (Q92633 whole entry): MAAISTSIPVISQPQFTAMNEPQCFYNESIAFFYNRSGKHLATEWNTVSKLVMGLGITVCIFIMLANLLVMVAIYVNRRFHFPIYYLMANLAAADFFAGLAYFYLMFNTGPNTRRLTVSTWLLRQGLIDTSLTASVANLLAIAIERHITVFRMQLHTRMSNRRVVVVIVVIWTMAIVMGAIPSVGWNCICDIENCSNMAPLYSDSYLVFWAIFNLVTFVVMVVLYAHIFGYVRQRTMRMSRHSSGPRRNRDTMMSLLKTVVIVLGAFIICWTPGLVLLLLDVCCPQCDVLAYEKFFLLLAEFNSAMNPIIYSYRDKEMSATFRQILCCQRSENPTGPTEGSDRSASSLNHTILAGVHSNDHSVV
Usually EC50 stands for the midpoint of the concentration-response curve. With `C[C@@H](OC(=O)Nc1c(-c2ccc(NC(=O)C34CC(O)(C3)C4)cn2)nnn1C)c1cccnc1Cl` [Compound 117, (R)-1-(2-chloropyridin-3-yl)ethyl (4-(5-(3-hydroxybicyclo[1.1.1]pentane-1-carboxamido)pyridin-2-yl)-1-methyl-1H-1,2,3-triazol-5-yl)carbamate], the EC50 was found to be 1140 nM.

On to `C[C@@H](OC(=O)Nc1c(-c2ncc(NC(=O)C3(C#N)CC3)cn2)nnn1C)c1cccnc1Cl` [Compound 2, [(1R)-1-(2-chloro-3-pyridyl)ethyl] N-[5-[5-[(1-cyanocyclopropanecarbonyl)amino]pyrimidin-2-yl]-3-methyl-triazol-4-yl]carbamate], for which the EC50 stood at 953 nM.

On to `C[C@@H](OC(=O)Nc1c(-c2ccc(NC(=O)C34CC(C3)C4)cn2)nnn1C)c1cccnc1Cl` [Compound 68, (R)-1-(2-chloropyridin-3-yl)ethyl (4-(5-(bicyclo[1.1.1]pentane-1-carboxamido)pyridin-2-yl)-1-methyl-1H-1,2,3-triazol-5-yl)carbamate], for which the 50% effective concentration (EC50) was determined as 40.8 nM.

With `C[C@@H](OC(=O)Nc1c(-c2ccc(NC(=O)C3(C#N)CC3)cn2)nnn1C)c1cc(F)cnc1Cl` [Compound 168, (R)-1-(2-chloro-5-fluoropyridin-3-yl)ethyl (4-(5-(1-cyanocyclopropane-1-carboxamido)pyridin-2-yl)-1-methyl-1H-1,2,3-triazol-5-yl)carbamate], the EC50 is 16.2 nM.

Regarding `C[C@@H](OC(=O)Nc1c(-c2ccc(NC(=O)OC(C)(C)C)cn2)nnn1C)c1cccnc1Cl` [Compound 11, (R)-1-(2-chloropyridin-3-yl)ethyl (4-(5-((tert-butoxycarbonyl)amino)pyridin-2-yl)-1-methyl-1H-1,2,3-triazol-5-yl)carbamate], the EC50 stood at 731 nM.

Take `C[C@@H](OC(=O)Nc1c(-c2ccc(NC(=O)C3(CN)CCC3)cn2)nnn1C)c1cc(F)cnc1F` [Compound 303, (R)-1-(2,5-difluoropyridin-3-yl)ethyl (4-(5-(1-(aminomethyl)cyclobutane-1-carboxamido)pyridin-2-yl)-1-methyl-1H-1,2,3-triazol-5-yl)carbamate]: the EC50 is 565 nM.

With `C[C@@H](OC(=O)Nc1c(-c2ccc(NC(=O)CC3OCCO3)cn2)nnn1C)c1cccnc1Cl` [Compound 196, (R)-1-(2-chloropyridin-3-yl)ethyl (4-(5 (2-(1,3-dioxolan-2-yl)acetamido)pyridin-2-yl)-1-methyl-1H-1,2,3-triazol-5-yl)carbamate], the half-maximal effective concentration (EC50) is 1030 nM.

With `C[C@@H](OC(=O)Nc1c(-c2ccc(NC(=O)c3ccc(C4(C#N)CC4)nc3)cn2)nnn1C)c1cc(F)cnc1F` [Compound 271, (R)-1-(2,5-difluoropyridin-3-yl)ethyl (4-(5-(6-(1-cyanocyclopropyl)nicotinamido)pyridin-2-yl)-1-methyl-1H-1,2,3-triazol-5-yl)carbamate], the EC50 turned out to be 229 nM.

As for `C[C@@H](OC(=O)Nc1c(-c2ncc(NC(=O)[C@@]3(C#N)C[C@@H]3C(F)F)cn2)nnn1C)c1cc(F)cnc1Cl` [Compound 287, (R)-1-(2-chloro-5-fluoropyridin-3-yl)ethyl (4-(5-((1S,2S)-1-cyano-2-(difluoromethyl)cyclopropane-1-carboxamido)pyrimidin-2-yl)-1-methyl-1H-1,2,3-triazol-5-yl)carbamate], the EC50 worked out at 1430 nM.

As to `C[C@@H](OC(=O)Nc1c(-c2cnc(NC(=O)C3(C#N)CC3)cn2)nnn1C)c1cc(F)cnc1F` [Compound 328, (R)-1-(2,5-difluoropyridin-3-yl)ethyl (4-(5-(1-cyanocyclopropane-1-carboxamido)pyrazin-2-yl)-1-methyl-1H-1,2,3-triazol-5-yl)carbamate], the EC50 turned out to be 1130 nM.

As for `C[C@@H](OC(=O)Nc1c(-c2cnc(NC(=O)c3ccc(C(F)(F)F)nc3)cn2)nnn1C)c1cccnc1F` [Compound 326, (R)-1-(2-fluoropyridin-3-yl)ethyl (1-methyl-4-(5-(6-(trifluoromethyl)nicotinamido)pyrazin-2-yl)-1H-1,2,3-triazol-5-yl)carbamate], the EC50 came out at 305 nM.

Consider `C[C@@H](OC(=O)Nc1c(-c2ccc(NC(=O)[C@H]3C[C@H]3F)cn2)nnn1C)c1cccnc1Cl` [Compound 56, (R)-1-(2-chloropyridin-3-yl)ethyl (4-(5-((1R,2R)-2-fluorocyclopropane-1-carboxamido)pyridin-2-yl)-1-methyl-1H-1,2,3-triazol-5-yl)carbamate], for which the EC50 is 1140 nM.

With `C[C@@H](OC(=O)Nc1c(-c2ccc(NC(=O)c3ccnc(C(F)F)c3)cn2)nnn1C)c1cc(F)cnc1F` [Compound 224, (R)-1-(2,5-difluoropyridin-3-yl)ethyl (4-(5-(2-(difluoromethyl)isonicotinamido)pyridin-2-yl)-1-methyl-1H-1,2,3-triazol-5-yl)carbamate], the 50% effective concentration (EC50) was found to be 40.2 nM.

Take `COC(=O)Nc1ccc(-c2nnn(C)c2NC(=O)O[C@H](C)c2cccnc2Cl)nc1` [Compound 17, (R)-1-(2-chloropyridin-3-yl)ethyl (4-(5-((methoxycarbonyl)amino)pyridin-2-yl)-1-methyl-1H-1,2,3-triazol-5-yl)carbamate]: the 50% effective concentration (EC50) was determined as 29.3 nM.

Regarding `C[C@@H](OC(=O)Nc1c(-c2ccc(NC(=O)C3(C#N)CC(F)C3)cn2)nnn1C)c1cccnc1Cl` (stereo partly drawn) [Compound 132, (R)-1-(2-chloropyridin-3-yl)ethyl (4-(5-(1-cyano-3-fluorocyclobutane-1-carboxamido)pyridin-2-yl)-1-methyl-1H-1,2,3-triazol-5-yl)carbamate], the EC50 is 197 nM.

In the case of `C[C@@H](OC(=O)Nc1c(-c2ccc(NC(=O)C3(F)CC3)cn2)nnn1C)c1cccnc1Cl` [Compound 60, (R)-1-(2-chloropyridin-3-yl)ethyl (4-(5-(1-fluorocyclopropane-1-carboxamido)pyridin-2-yl)-1-methyl-1H-1,2,3-triazol-5-yl)carbamate], the EC50 amounted to 140 nM.

Consider `Cc1ncc(F)cc1[C@@H](C)OC(=O)Nc1c(-c2ccc(NC(=O)[C@@H]3C[C@H]3F)cn2)nnn1C` [Compound 176, (R)-1-(5-fluoro-2-methylpyridin-3-yl)ethyl (4-(5-((1S,2R)-2-fluorocyclopropane-1-carboxamido)pyridin-2-yl)-1-methyl-1H-1,2,3-triazol-5-yl)carbamate], for which the EC50 was 253 nM.

As to `C[C@@H](OC(=O)Nc1c(-c2ccc(NC(=O)CO)cn2)nnn1C)c1cccnc1Cl` [Compound 126, (R)-1-(2-chloropyridin-3-yl)ethyl (4-(5-(2-hydroxyacetamido)pyridin-2-yl)-1-methyl-1H-1,2,3-triazol-5-yl)carbamate], the EC50 stood at 1830 nM.

Take `C[C@@H](OC(=O)Nc1c(-c2ncc(NC(=O)c3ccc(Cl)nc3)cn2)nnn1C)c1cc(F)cnc1F` [Compound 319, (R)-1-(2,5-difluoropyridin-3-yl)ethyl (4-(5-(6-chloronicotinamido)pyrimidin-2-yl)-1-methyl-1H-1,2,3-triazol-5-yl)carbamate]: the EC50 turned out to be 1500 nM.

As for `C[C@@H](OC(=O)Nc1c(-c2ccc(NC(=O)C3(C(F)F)COC3)cn2)nnn1C)c1cc(F)cnc1F` [Compound 214, (R)-1-(2,5-difluoropyridin-3-yl)ethyl (4-(5-(3-(difluoromethyl)oxetane-3-carboxamido)pyridin-2-yl)-1-methyl-1H-1,2,3-triazol-5-yl)carbamate], the EC50 amounted to 357 nM.

As to `C[C@@H](OC(=O)Nc1c(-c2ccc(NC(=O)C34CC(Cl)(C3)C4)cn2)nnn1C)c1cccnc1Cl` [Compound 82, (R)-1-(2-chloropyridin-3-yl)ethyl (4-(5-(3-chlorobicyclo[1.1.1]pentane-1-carboxamido)pyridin-2-yl)-1-methyl-1H-1,2,3-triazol-5-yl)carbamate], the EC50 was determined as 20.4 nM.

`C[C@@H](OC(=O)Nc1c(-c2ccc(NC(=O)c3ccnc(Cl)c3)cn2)nnn1C)c1cccnc1Cl` [Compound 103, (R)-1-(2-chloropyridin-3-yl)ethyl (4-(5-(2-chloroisonicotinamido)pyridin-2-yl)-1-methyl-1H-1,2,3-triazol-5-yl)carbamate]: the EC50 worked out at 16.6 nM.

For the compound `C[C@@H](OC(=O)Nc1c(-c2ccc(NC(=O)[C@H]3C[C@]4(CC4(F)F)C3)cn2)nnn1C)c1cccnc1Cl` [Compound 86, (R)-1-(2-chloropyridin-3-yl)ethyl (4-(5-((3S,5s)-1,1-difluorospiro[2.3]hexane-5-carboxamido)pyridin-2-yl)-1-methyl-1H-1,2,3-triazol-5-yl)carbamate], the EC50 came out at 16.6 nM.

Regarding `C[C@@H](OC(=O)Nc1c(-c2ccc(NC(=O)c3c[nH]cn3)cn2)nnn1C)c1cccnc1Cl` [Compound 106, (R)-1-(2-chloropyridin-3-yl)ethyl (4-(5-(1H-imidazole-4-carboxamido)pyridin-2-yl)-1-methyl-1H-1,2,3-triazol-5-yl)carbamate], the concentration giving a half-maximal response (EC50) turned out to be 1760 nM.

Regarding `C[C@@H](OC(=O)Nc1c(-c2ncc(NC(=O)C3(C#N)CC3)cc2F)nnn1C)c1cc(F)cnc1F` [Compound 336, (R)-1-(2,5-difluoropyridin-3-yl)ethyl (4-(5-(1-cyanocyclopropane-1-carboxamido)-3-fluoropyridin-2-yl)-1-methyl-1H-1,2,3-triazol-5-yl)carbamate], the EC50 amounted to 258 nM.

On to `C[C@@H](OC(=O)Nc1c(-c2ccc(NC(=O)CC(C)(C)O)cn2)nnn1C)c1cccnc1Cl` [Compound 118, (R)-1-(2-chloropyridin-3-yl)ethyl (4-(5-(3-hydroxy-3-methylbutanamido)pyridin-2-yl)-1-methyl-1H-1,2,3-triazol-5-yl)carbamate], for which the EC50 was 1340 nM.

As to `C[C@@H](OC(=O)Nc1c(-c2ccc(NC(=O)C3(C#N)CCOCC3)cn2)nnn1C)c1cccnc1Cl` [Compound 95, (R)-1-(2-chloropyridin-3-yl)ethyl (4-(5-(4-cyanotetrahydro-2H-pyran-4-carboxamido)pyridin-2-yl)-1-methyl-1H-1,2,3-triazol-5-yl)carbamate], the EC50 is 309 nM.

On to `C[C@@H](OC(=O)Nc1c(-c2ccc(NC(=O)C3CNC3)cn2)nnn1C)c1cccnc1Cl` [Compound 38, (R)-1-(2-chloropyridin-3-yl)ethyl (4-(5-(azetidine-3-carboxamido)pyridin-2-yl)-1-methyl-1H-1,2,3-triazol-5-yl)carbamate], for which the EC50 was determined as 10000 nM.

The values above are taken from US11912686B2 (Gilead Sciences, Inc., priority 2020, dated 2024).
